{
  "source": "patent US20260184773A1",
  "about": "“THERAPEUTIC SINGLE DOMAIN ANTIBODY” (priority 2021, published 2026)",
  "key": {"[1]": {"test_system": "Zika DAKAR, Senegal in HFF", "test": "Viral inhibition", "assay_type": "cell-based, Zika virus"}, "[2]": {"test_system": "MDA-M-453", "test": "MTT assay"}, "[3]": {"test_system": "phosphorylated ERK1/2 in KRAS mutant cancer cells", "test": "Western blot for phosphorylated ERK1/2", "settings": "MDA-MD-231 and PANC-1, 100 μg/ml for 72 hours"}, "[4]": {"test_system": "BT474", "test": "MTT assay"}, "[5]": {"test_system": "ENBOV (Ebola) in HFF", "assay_type": "cell-based, Ebola virus", "settings": "HFF, ENBOV (Ebola)"}, "[6]": {"molecular_target": "KRAS (Homo sapiens, UniProt P01116)", "test": "KRAS GTPase activity (GTPase-Glo luminescence)", "settings": "dilution series"}, "[7]": {"test_system": "Bx-PC3", "test": "MTT assay"}, "[8]": {"test_system": "STAT3 in MDA-MB-231 cells", "test": "Nuclear tSTAT3/pSTAT3 staining quantified by IFA/confocal", "assay_type": "cell-based, human", "settings": "6-hour treatment, two-dimensional images, co-occurrence with DAPI", "description": "Immunofluorescence and Immunohistochemical Staining: Standard procedures were used for immunohistochemistry and immunofluorescence assay (IFA) staining. Primary antibodies for IF were: Anti-t-STAT3: (Cell Signaling Technology), Anti-p-STAT3: (Cell Signaling Technology), Anti-PD-L1: (Cell Signaling Technology), Anti-VHH Antibody: (Rockland), Alexa Fluor 488-Anti-rabbitIgG: (AFanti-rabIgG, Jackson ImmunoResearch). The blocking solution, 1° and 2° antibody diluent were 1% BP: (1% BSA in PBS). All cell incubations were at 37° C. in a 5% CO2 incubator in media. 4,500 cells/well were seeded in chamber slides allowed to adhere overnight.\nIFA: Wells were blocked for >30 minutes, blocking agent removed and primary antibodies were added at the following dilutions prior to overnight incubation at 5° C.: anti-VHH=1:500, anti-t-STAT3=1:300, anti-P-STAT3=1:125, anti-PD-L1=1:300. Wells were washed with PBS and incubated with AFanti-rabIgG (1:300) for >1 hour prior to washing with PBS, coverslipped and examined by fluorescent microscopy. […] Traditional fluorescence microscopy was performed using the Nikon 80i microscope and the appropriate wavelength filter. […]\nConfocal microscopy: The confocal images were obtained using the Leica TCS SP8 confocal microscope. Images were quantified using Fiji software. […]"}, "[9]": {"test_system": "TC83 in U87MG", "assay_type": "cell-based, Venezuelan Equine Encephalitis (TC83) virus"}, "[10]": {"test_system": "MCF-7", "test": "MTT assay"}, "[11]": {"test_system": "EAU mice"}, "[12]": {"test_system": "MDA-MB-468", "test": "MTT assay"}, "[13]": {"test_system": "DU-145", "test": "MTT assay"}, "[14]": {"test_system": "HEK 293 IL-6 STAT3 reporter cell line", "test": "STAT3 luciferase reporter assay after IL-6 stimulation", "assay_type": "cell-based", "settings": "dose of 100 μg/mL", "description": "Promega Dual Luciferase Reporter Assay System […]: In this assay, a HEK 293 IL-6 STAT3 reporter cell line (Promega, Madison WI) was used to measure STAT3 transcriptional activity. In this cell line, induction with 40 ng/ml of IL-6 activates STAT3 transcription factors to drive luciferase reporter expression which can then be measured on a standard luminometer. […] IL-6 was added during the last 18 hours of incubation. […] At 48 hours, cells underwent lysis and luminescence measurements were made using a BMG Labtech microplate reader. Results are expressed as a percent of control wells (cells+IL-6).\nReporter cell assays were done to measure luciferase expression from HEK 293 cells transfected with a construct linking the STAT3 promoter to the luciferase gene."}, "[15]": {"test_system": "PANC-1 tumors", "settings": "PANC-1 xenograft"}, "[16]": {"settings": "mice"}, "[17]": {"test_system": "MDA-MB-231 cells", "test": "Cell penetration by immunofluorescence/confocal microscopy", "assay_type": "cell-based, human", "settings": "MDA-MB-231 cells, fluorescence microscopy"}, "[18]": {"test_system": "U87", "test": "MTT assay"}},
  "data": [
    {"substance": "SBT-100: 15 kDa camelid single domain antibody (VHH), SEQ ID NO: 1, binds both STAT3 and KRAS", "values": [
      {"measurement": "Comment", "setting": "[1]", "result": "Inhibits Zika virus replication"},
      {"measurement": "EC50", "setting": "[1]", "result": 6.26, "unit": "µM"},
      {"measurement": "IC50", "setting": "[2]; MDA-M-453", "result": 1190, "unit": "nM"},
      {"measurement": "% Inhibition in 3 days with SBT-100 (SEQ ID NO: 1) ug/ml or 6.7 uM)", "setting": "[2]; MDA-M-453, 3 days, 6.7 uM", "result": "64% (P < 0.001)"},
      {"measurement": "Downstream phosphorylation of ERK (PERK)", "setting": "[3]", "result": "inhibited"},
      {"measurement": "IC50", "setting": "[4]; BT474", "result": 1680, "unit": "nM"},
      {"measurement": "% Inhibition in 3 days with SBT-100 (SEQ ID NO: 1) ug/ml or 6.7 uM)", "setting": "[4]; BT474, 3 days, 6.7 uM", "result": "93% (P < 0.001)"},
      {"measurement": "Comment", "setting": "[5]", "result": "Inhibits Ebola virus replication"},
      {"measurement": "EC50", "setting": "[5]", "result": 2560, "unit": "nM"},
      {"measurement": "Time to cross the BBB", "setting": "mouse brain, staining in neurons and glial cells", "result": 15, "unit": "min"},
      {"measurement": "Crossing of the blood brain barrier by IHC", "setting": "once IP 5 mg/kg, fifteen minutes, mice with MDA-MB-231 tumors", "result": "crosses the blood brain barrier"},
      {"measurement": "KRAS GTPase activity (RLU)", "setting": "[6]", "result": "inhibited by increasing doses"},
      {"measurement": "IC50", "setting": "[7]; Bx-PC3", "result": 2340, "unit": "nM"},
      {"measurement": "% Inhibition in 3 days with SBT-100 (SEQ ID NO: 1) ug/ml or 6.7 uM)", "setting": "[7]; Bx-PC3, 3 days, 6.7 uM", "result": "90% (P < 0.001)"},
      {"measurement": "Original pSTAT3 staining remaining in the nucleus", "setting": "[8]", "result": 70, "unit": "%"},
      {"measurement": "Original tSTAT3 staining remaining in the nucleus", "setting": "[8]", "result": 41, "unit": "%"},
      {"measurement": "Comment", "setting": "[9]", "result": "Inhibits Venezuelan Equine"},
      {"measurement": "EC50", "setting": "[9]", "result": 2530, "unit": "nM"},
      {"measurement": "IC50", "setting": "[10]; MCF-7", "result": 990, "unit": "nM"},
      {"measurement": "% Inhibition in 3 days with SBT-100 (SEQ ID NO: 1) ug/ml or 6.7 uM)", "setting": "[10]; MCF-7, 3 days, 6.7 uM", "result": "93% (P < 0.001)"},
      {"measurement": "Optical Coherence Tomography (OCT)", "setting": "[11]; day 15, optic nerve head and vitreous", "result": "reduced recruitment of inflammatory cells"},
      {"measurement": "IL-17 secreting pathogenic Th17 cells (intracellular cytokine staining, FACS)", "setting": "[11]; day 18", "result": "significant reduction"},
      {"measurement": "EAU clinical scores by fundoscopy", "setting": "[11]; injected into the eye, day 15 and 18", "result": "decreased"},
      {"measurement": "Electroretinography (ERG)", "setting": "[11]; mouse, in vivo", "result": "improved visual function"},
      {"measurement": "IC50", "setting": "[12]; MDA-MB-468", "result": 830, "unit": "nM"},
      {"measurement": "% Inhibition in 3 days with SBT-100 (SEQ ID NO: 1) ug/ml or 6.7 uM)", "setting": "[12]; MDA-MB-468, 3 days, 6.7 uM", "result": "85% (P < 0.001)"},
      {"measurement": "IC50", "setting": "[13]; DU-145", "result": 1460, "unit": "nM"},
      {"measurement": "% Inhibition in 3 days with SBT-100 (SEQ ID NO: 1) ug/ml or 6.7 uM)", "setting": "[13]; DU-145, 3 days, 6.7 uM", "result": "92% (P < 0.001)"},
      {"measurement": "Reduction in IL-6 induced pSTAT3 binding to its DNA promotor", "setting": "[14]", "result": "~100", "unit": "%"},
      {"measurement": "Deaths and weight loss", "setting": "[15]", "result": "No treated mice died or had any weight loss"},
      {"measurement": "% Inhibition of Control, Day 12", "setting": "[15]; intraperitoneal for 14 days, Day 12", "result": 20.7, "unit": "%"},
      {"measurement": "% Inhibition of Control, Day 15", "setting": "[15]; intraperitoneal for 14 days, Day 15", "result": 27.29, "unit": "%"},
      {"measurement": "% Inhibition of Control, Day 19", "setting": "[15]; intraperitoneal for 14 days, Day 19", "result": 18.37, "unit": "%"},
      {"measurement": "% Inhibition of Control, Day 22", "setting": "[15]; intraperitoneal for 14 days, Day 22 (end of the study)", "result": 19.17, "unit": "%"},
      {"measurement": "Serum half-life", "setting": "[16]", "result": 1, "unit": "h"},
      {"measurement": "Intracellular staining/localization of VHH", "setting": "[17]", "result": "exhibited intracellular localization"},
      {"measurement": "IC50", "setting": "[18]; U87", "result": 4.32, "unit": "µM"},
      {"measurement": "% Inhibition in 3 days with SBT-100 (SEQ ID NO: 1) ug/ml or 6.7 uM)", "setting": "[18]; U87, 3 days, 6.7 uM", "result": "62% (P < 0.001)"}
    ]}
  ]
}
